Entries after “also recorded” stand apart in the source; their conditions may differ.
Tests used:
Type in all cases: in vivo, human
[1] = test system: healthy volunteer subjects; test: Serum measurement of cytokines, chemokines and growth factors (Bio-Plex) after treatment
Method: The recruited patients had already been subjected to one or more polidocanol treatments, but had undergone a wash-out period of at least 4 months.
Blood was then drawn at about 30′-1 hour (T1h), 1 day (T1), 7 days (T7) and 30 days (T30) after treatment, measuring the following serum parameters: • a) “Pro-inflammatory” cytokines: IL-1β, IL-6, IL-7, IL-12 (p70), IL-17, IFN-γ, TNF-α; • b) “Anti-inflammatory” cytokines: IL-1ra, IL-4, IL-5, IL-9, IL-13; • c) Chemokines: IL-8/CXCL8, IP-10/CXCL10, MIP-1α/CCL3, MIP-1β, RANTES/CCL5, Eotaxin/CCL11; • d) Growth factors: b-FGF, PDGF-bb, VEGF, G-CSF.
In a limited number of patients measurements 30 minutes and 3 hours after the treatment were carried out in order to identify short-term responses and assess possible acute inflammation indicators.
Determinations a)-d) were carried out with Multiple Immunomagnetic Assay (Bio-Plex, Bio-Rad). Ig determinations were carried out with commercially available kits.
The determinations carried out were statistically analysed with the Friedman test and Dunns Multiple Comparison test. The most significant results are depicted in FIG. 1.

[2] = test system: venous, reticular or capillary vessels of treated subjects; test: Clinical observation of treated subjects: venous functionality, sclerosing effect, side effects; details: for sclerosing effect (venous, reticular or capillary parietal damage): diluted solution according to the invention, intravenous
Method: It is administered parenterally via the intravenous route.
Moreover, its use, for at least 4 applications every two months, contributes in determining a higher overall well-being, associated with an anti-inflammatory activity and with the modulation of several molecular markers of the immune and endothelial system. This modulation in addition to ameliorating the venous system functionality, which is objectively observed in most of the treated subjects (95-98%) and results in a reduction of the limbs heaviness sensation and of orthostatic oedema and cellulitis, exert a systemic effects, often also accompanied by an improved skin trophism.
There is almost no evidence even of quite common reactions (0.1-1%), such as superficial thrombophlebitis, allergic dermatitis, hives, erythema, skin necrosis.
Therefore, a further aspect of the present invention is a composition comprising polidocanol in concentration below 0.1%, preferably of from 0.03 to 0.09% by weight, preferably of from 0.04 to 0.08%, preferably of 0.05%-0.06% in saline solution (0.9% w/V NaCl) for use as immunomodulating and anti-inflammatory agent.

[3] = test system: subject with psoriasis; test: Skin rashes in a subject with psoriasis after a single treatment; details: pictures at T=0 and after 30 days (FIG. 3)
Method: FIG. 3. Treatment of peripheral venous insufficiency in a subject with psoriasis. The subject was treated with a single dose of diluted polidocanol 0.1%. Pictures were taken at T=0 (panel A) and after 30 days (panel B).

[4] = test system: patients suffering from venous insufficiency from minor to severe; test: QoL survey (CIVIQ-20) after 3 or 4 treatments with diluted polidocanol
Method: A commercially available polidocanol solution (Atossisclerol®) was diluted to 0.05% with a physiological saline solution. A 1.4% sodium bicarbonate solution was then added in order to obtain a final concentration of 0.06%. The patients, 80% of which were female between 18 and 82 years of age suffering from venous insufficiency from minor to severe, were subjected to treatment after obtaining their free and informed consent.
Before the treatment, about 100 patients were subjected to a survey in order to assess their quality of life and to evaluate possible variations of the phlogistic/inflammatory overall state, of the venous microcirculation and circulation functionality, and also, more in general, of the skin trophism.
The long term systemic effects were evaluated via a survey given to patients after 3 or 4 treatments with diluted polidocanol.
In particular, they were asked to fill out a survey (CIVIQ-20) according to the criteria defined in Launois R. et al “Construction and validation of a quality of life questionnaire in chronic lower limb venous insufficiency (CIVIQ), Qual. Life Res., 1996, 5(6):539-554.
The survey contained the questions summarized hereinbelow, with answers indexed with values from 0 to 4 (0 if the feeling of discomfort described by the question was not applicable and from 1 to 4 if it was applicable with increasing intensity). Hereinbelow are collected the activities which turned out to be improved after the treatment: • 1) During the last 4 weeks have you felt pain in the hips or legs and with what intensity? In 14% of cases a decrease in hip pain was observed after treatment with polidocanol according to the invention. • 2) During the last 4 weeks have you had troubles in the routine work activities, due to troubles with the lower limbs? In 75% cases the patients could note a better condition during routine work activity • 3) During the last 4 weeks have you had troubles sleeping due to troubles with your legs? With what frequency? 37% better sleeping conditions. No troubles. • 4) During the last 4 weeks have you had troubles in the following activities due to troubles with your legs? • a. Remaining standing for a long time. Improves in 87% • b. Climbing several flights of stairs. • c. Crouching kneeling down. Improves • d. Walking at a brisk pace. • e. Traveling by car, bus, plane. Improves in 85% • f. Performing housekeeping tasks (ironing, walking around in the kitchen, etc.). Improves in 85% • g. Going out at night. Improves in 85% • h. Playing sports • 5) Given that troubles with the legs can also affect moods, it was asked if during the last 4 weeks they had noticed troubles such as: • a. Nervousness • b. Quick fatigue • c. Feeling of oppression • d. Excessive caution • e. Embarrassment in showing off the legs. Improves in 90% • f. Irritability • g. Feeling of being handicapped • h. Morning fatigue. Improves in 95% • i. Not feeling like going out. Improves in 75%.

[5] = 7 days post treatment (T7) vs basal

Polidocanol [diluted polidocanol]
IL-8 level ([1]; 7-30 days): increases | IL-1ra serum level [1, 5]: increase significantly; also recorded: significantly increased serum levels | IL-1β serum level [1, 5]: increase significantly; also recorded: significantly increased serum levels | IL-12 (p70) serum level [1, 5]: increase significantly; also recorded: significantly increased serum levels | MIP-1β/CCL4 serum level [1, 5]: modest variation (increase); also recorded: significantly increased serum levels | VEGF serum level [1, 5]: Increase; also recorded: significantly increased serum levels | IL-7 serum level ([1]; 30 days (T30) vs T0, p<0.01): decreases in a statistically significant way; also recorded: decreases significantly; also recorded: decrease | IL-12 serum level ([1]; 30 days (T30) vs T0, p<0.05): increases significantly; also recorded: increase | IL-1ra serum level ([1]; 30 days (T30), p<0.05): increase | IL-1β serum level ([1]; 30 days (T30), p<0.05): increase | VEGF serum level ([1]; 30 days (T30), p<0.05): higher levels; also recorded: increase | serum parameters, not-treated (T0) vs 1 day after treatment (T1) ([1]; T1, acute inflammatory reaction): None of the analysed parameters showed statistically significant differences | PDGFbb level ([1]; after treatment): increasing | b-FGF level ([1]; after treatment): increasing | most of the serum parameters (except for IP-10/CXCL10) compared with T0 ([1]; first hour after treatment (T30-45 min)): increased | IL-2, IL-10, IL-15, GM-CSF and MCP-1/CCL2 serum levels ([1]; in vivo): below the detection limits | MIP-1α level ([1]; with respect to basal levels, within the 1st and 7th days): modest variation (increase) | treated subjects in which ameliorated venous system functionality is objectively observed ([2]; at least 4 applications every two months): 95-98% | side effects ([2]; concentrations of the treatment according to the invention, vs traditional sclerotherapy): very limited to zero side effects | sclerosing effect (venous, reticular or capillary parietal damage) [2]: does not exert a sclerosing effect | sclerosing effect (venous, reticular or capillary parietal damage) ([2]; listed as polidocanol): non-sclerosing effect | polidocanol concentrations having a sclerosing effect on small calibre capillaries or reticular veins ([2]; human, in vivo): ≥ 0.12% | skin rashes in a subject with psoriasis [3]: improve visibly the skin rashes | cases with decrease in hip pain ([4]; CIVIQ-20 question 1, after 3 or 4 treatments): 14% | cases with better condition during routine work activity ([4]; CIVIQ-20 question 2): 75% | better sleeping conditions ([4]; CIVIQ-20 question 3): 37% | Remaining standing for a long time, improves ([4]; CIVIQ-20 question 4a): 87% | Crouching kneeling down ([4]; CIVIQ-20 question 4c): Improves | Traveling by car, bus, plane, improves ([4]; CIVIQ-20 question 4e): 85% | Performing housekeeping tasks, improves ([4]; CIVIQ-20 question 4f): 85% | Going out at night, improves ([4]; CIVIQ-20 question 4g): 85% | Embarrassment in showing off the legs, improves ([4]; CIVIQ-20 question 5e): 90% | Not feeling like going out, improves ([4]; CIVIQ-20 question 5i): 75% | Morning fatigue, improves ([4]; CIVIQ-20 question 5h): 95% | cases with improved quality of life overall ([4]; answers after vs before treatment): 87%

— patent US12016831B2, “Polidocanol for use as immunomodulating agent” (priority 2018, dated 2024)
